Laboratory results: ChEMBL document CHEMBL5230103, “Hydroxamic acid hybrids as the potential anticancer agents: An Overview” (Eur J Med Chem, 2020)
One block for each compound: values may come before it.

What was measured:
PANC-1 = experiment: Cytotoxicity against human PANC-1 cells assessed as inhibition of cell growth by MTT assay; format: functional, cell-based
HCT-116 [1] = experiment: Cytotoxicity against human HCT-116 cells assessed as inhibition of cell growth by MTT assay; format: functional, cell-based
[2] = Cytotoxicity against chicken heart fibroblast cells; format: toxicity, cell-based, Gallus gallus
518A2 = experiment: Cytotoxicity against human 518A2 cells assessed as inhibition of cell growth by MTT assay; format: functional, cell-based
HT-29 = experiment: Cytotoxicity against human HT-29 cells assessed as inhibition of cell growth by MTT assay; format: functional, cell-based
KB-V1 = experiment: Cytotoxicity against human vinblastine resistant KB-V1 cells assessed as inhibition of cell growth by MTT assay; format: functional, cell-based
[3] = Cytotoxicity against human MCF7/Topo cells assessed as inhibition of cell growth by MTT assay; format: functional, cell-based
Histone deacetylase 2 = Histone deacetylase 2 (Homo sapiens, UniProt Q92769); experiment: Inhibition of HDAC2 (unknown origin)
PC-3 [4] = experiment: Potency index, ratio of vorinostat IC50 to test compound IC50 for cytotoxicity against human PC-3 cells assessed as inhibition of cell growth by SRB assay; format: functional
ASPC1 [5] = experiment: Cytotoxicity against human ASPC1 cells assessed as inhibition of cell growth by SRB assay; format: functional, cell-based
SW-620 [6] = experiment: Cytotoxicity against human SW620 cells assessed as inhibition of cell growth by SRB assay; format: functional, cell-based
ASPC1 [7] = experiment: Potency index, ratio of vorinostat IC50 to test compound IC50 for cytotoxicity against human ASPC1 cells assessed as inhibition of cell growth by SRB assay; format: functional
PC-3 [8] = experiment: Cytotoxicity against human PC-3 cells assessed as inhibition of cell growth by SRB assay; format: functional, cell-based
SW-620 [9] = experiment: Potency index, ratio of vorinostat IC50 to test compound IC50 for cytotoxicity against human SW620 cells assessed as inhibition of cell growth by SRB assay; format: functional
MDA-MB-231 = experiment: Antitumor activity against human MDA-MB-231 cells xenografted in mouse assessed as reduction on tumor volume at 20 mg/kg, ip relative to control; format: functional; set-up: scale not given: the % may be the effect or the level left
HL-60 = experiment: Antiproliferative activity against human HL-60 cells assessed as inhibition of cell growth by MTT assay; format: functional, cell-based
[10] = Cytotoxicity against human HuT 102 cells assessed as inhibition of cell growth by MTT assay; format: functional, cell-based
U2OS = experiment: cells; format: functional, cell-based; conditions: Homo sapiens, 72 h
Description: Cytotoxicity against human U2OS cells assessed as inhibition of cell growth measured after 72 hrs by MTT assay

MCF7 [11] = experiment: cells; format: functional, cell-based; conditions: Homo sapiens, MCF7, 72 h
Description: Cytotoxicity against human MCF7 cells assessed as inhibition of cell growth measured after 72 hrs by MTT assay

Plasmodium falciparum [12] = experiment: Antimalarial activity against erythrocytic stage of chloroquine resistant Plasmodium falcipuram Dd2 measured after 3 days by HRP2-ELISA; format: functional, organism-based; conditions: Dd2, 72 h
Plasmodium berghei = experiment: Antimalarial activity against hepatic stage of Plasmodium berghei infected in human Huh-7 cells preincubated for 1 hr followed by parasite addition and measured after 48 hrs by bioluminescence assay; format: functional, organism-based
HepG2 [13] = experiment: Cytotoxicity against human HepG2 cells assessed as inhibition of cell growth measured after 72 hrs by MTT assay; format: functional, cell-based; conditions: HepG2, 72 h
Plasmodium falciparum [14] = experiment: Antimalarial activity against erythrocytic stage of chloroquine susceptible Plasmodium falcipuram 3D7 measured after 3 days by HRP2-ELISA; format: functional, organism-based; conditions: 3D7, 72 h
[15] = molecular target: Histone deacetylase (Homo sapiens) (UniProt Q13547+O15379+Q9UBN7+Q92769+Q9UQL6+Q8WUI4+Q9BY41+Q96DB2+P56524+Q9UKV0+Q969S8); experiment: Potency index, ratio of vorinostat IC50 to test compound IC50 for inhibition of HDAC (unknown origin); format: protein assay
Histone deacetylase = experiment: Inhibition of HDAC (unknown origin); format: protein assay, Homo sapiens
A549 = experiment: Cytotoxicity against human A549 cells assessed as inhibition of cell growth by SRB assay; format: functional
Hep 3B2 = experiment: Cytotoxicity against human Hep3B cells assessed as inhibition of cell growth by MTT assay; format: functional
HCT-116 [16] = experiment: Cytotoxicity against human HCT-116 cells assessed as inhibition of cell growth by SRB assay; format: functional, cell-based
U-937 [17] = experiment: Antiproliferative activity against human U-937 cells assessed as inhibition of cell growth by MTT assay; format: functional, cell-based
SH-SY5Y = experiment: Antiproliferative activity against human SH-SY5Y cells assessed as inhibition of cell growth by MTT assay; format: functional, cell-based
[18] = molecular target: T1, Protein deacetylase HDAC6 (Homo sapiens, UniProt Q9UBN7); experiment: Inhibition of HDAC6 (unknown origin)
T1 sequence (Q9UBN7 whole entry): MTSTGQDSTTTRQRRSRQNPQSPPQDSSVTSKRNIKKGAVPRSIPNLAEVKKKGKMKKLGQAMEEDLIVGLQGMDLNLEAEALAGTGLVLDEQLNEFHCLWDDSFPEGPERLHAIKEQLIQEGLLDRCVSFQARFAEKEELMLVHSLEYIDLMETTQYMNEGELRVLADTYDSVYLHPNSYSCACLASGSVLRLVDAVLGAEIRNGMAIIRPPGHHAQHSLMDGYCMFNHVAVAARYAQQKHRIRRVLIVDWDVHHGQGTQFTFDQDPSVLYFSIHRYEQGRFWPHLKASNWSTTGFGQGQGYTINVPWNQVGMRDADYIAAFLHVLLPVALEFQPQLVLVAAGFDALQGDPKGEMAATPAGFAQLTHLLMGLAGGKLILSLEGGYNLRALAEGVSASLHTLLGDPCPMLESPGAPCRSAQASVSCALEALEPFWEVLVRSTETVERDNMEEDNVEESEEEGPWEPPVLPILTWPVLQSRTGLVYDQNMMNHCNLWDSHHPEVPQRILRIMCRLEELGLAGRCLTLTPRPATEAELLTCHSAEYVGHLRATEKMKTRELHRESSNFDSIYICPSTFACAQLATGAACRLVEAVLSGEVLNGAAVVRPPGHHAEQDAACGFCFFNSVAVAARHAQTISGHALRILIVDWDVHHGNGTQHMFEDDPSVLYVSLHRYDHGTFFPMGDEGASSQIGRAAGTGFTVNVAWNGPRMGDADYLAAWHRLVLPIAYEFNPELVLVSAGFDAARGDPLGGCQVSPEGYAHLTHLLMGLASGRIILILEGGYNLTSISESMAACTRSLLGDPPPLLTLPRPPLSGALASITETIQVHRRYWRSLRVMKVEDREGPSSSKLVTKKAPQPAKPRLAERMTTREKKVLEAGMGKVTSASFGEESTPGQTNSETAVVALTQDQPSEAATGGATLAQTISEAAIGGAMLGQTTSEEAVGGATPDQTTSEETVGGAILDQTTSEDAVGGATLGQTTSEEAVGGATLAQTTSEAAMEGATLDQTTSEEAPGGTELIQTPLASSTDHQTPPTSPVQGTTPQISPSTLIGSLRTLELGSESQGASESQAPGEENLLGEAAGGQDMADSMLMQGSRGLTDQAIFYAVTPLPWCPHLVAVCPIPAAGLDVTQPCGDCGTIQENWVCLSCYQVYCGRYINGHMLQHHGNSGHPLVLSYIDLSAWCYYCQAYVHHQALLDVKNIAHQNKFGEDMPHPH

U-266 = experiment: Antiproliferative activity against human U-266 cells assessed as inhibition of cell growth by MTT assay; format: functional, cell-based
NCI-H929 = experiment: Antiproliferative activity against human NCI-H929 cells assessed as inhibition of cell growth by MTT assay; format: functional, cell-based
Histone deacetylase 3 = Histone deacetylase 3 (Homo sapiens, UniProt O15379); experiment: Inhibition of HDAC3 (unknown origin)
Histone deacetylase 1 = Histone deacetylase 1 (Homo sapiens, UniProt Q13547); experiment: Inhibition of HDAC1 (unknown origin)
Histone deacetylase 8 = Histone deacetylase 8 (Homo sapiens, UniProt Q9BY41); experiment: Inhibition of HDAC8 (unknown origin)
MCF7 [19] = experiment: Antiproliferative activity against human MCF7 cells assessed as inhibition of cell growth by MTT assay; format: functional, cell-based
PC-3 [20] = experiment: Cytotoxicity against human PC-3 cells assessed as inhibition of cell growth by MTT assay; format: functional, cell-based
ES-2 = experiment: Cytotoxicity against human ES2 cells assessed as inhibition of cell growth by MTT assay; format: functional, cell-based
HepG2 [21] = experiment: Cytotoxicity against human HepG2 cells assessed as inhibition of cell growth by MTT assay; format: functional, cell-based
K562 = experiment: Cytotoxicity against human K562 cells assessed as inhibition of cell growth by MTT assay; format: functional, cell-based
U-937 [22] = experiment: Cytotoxicity against human U-937 cells assessed as inhibition of cell growth by MTT assay; format: functional, cell-based
PLC-PRF-5 = experiment: Cytotoxicity against human PLC-PRF-5 cells assessed as inhibition of cell growth by MTT assay; format: functional, cell-based
EJ = experiment: Cytotoxicity against human EJ cells assessed as inhibition of cell growth by MTT assay; format: functional, cell-based
MCF7 [23] = experiment: Cytotoxicity against human MCF7 cells assessed as inhibition of cell growth by MTT assay; format: functional, cell-based
NCI-H460 = experiment: Cytotoxicity against human NCI-H460 cells assessed as inhibition of cell growth by MTT assay; format: functional, cell-based
SMMC-7721 = experiment: Cytotoxicity against human SMMC-7721 cells assessed as inhibition of cell growth by MTT assay; format: functional, cell-based

Chain of Histone deacetylase 2 (Q92769 whole entry): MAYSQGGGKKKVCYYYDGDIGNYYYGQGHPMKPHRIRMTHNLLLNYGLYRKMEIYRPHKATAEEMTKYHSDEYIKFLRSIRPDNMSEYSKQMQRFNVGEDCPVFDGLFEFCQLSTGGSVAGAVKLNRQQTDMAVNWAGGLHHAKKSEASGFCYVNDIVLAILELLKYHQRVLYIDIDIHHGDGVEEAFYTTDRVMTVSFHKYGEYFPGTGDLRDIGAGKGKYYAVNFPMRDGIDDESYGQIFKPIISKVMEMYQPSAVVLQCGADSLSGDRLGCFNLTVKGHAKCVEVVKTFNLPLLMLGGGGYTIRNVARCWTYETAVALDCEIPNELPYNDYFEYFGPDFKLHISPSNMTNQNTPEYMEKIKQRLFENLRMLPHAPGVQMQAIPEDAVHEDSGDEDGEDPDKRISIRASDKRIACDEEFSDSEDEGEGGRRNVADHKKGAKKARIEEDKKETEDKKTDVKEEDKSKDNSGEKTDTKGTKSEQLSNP
Chain of Histone deacetylase 8 (Q9BY41 whole entry): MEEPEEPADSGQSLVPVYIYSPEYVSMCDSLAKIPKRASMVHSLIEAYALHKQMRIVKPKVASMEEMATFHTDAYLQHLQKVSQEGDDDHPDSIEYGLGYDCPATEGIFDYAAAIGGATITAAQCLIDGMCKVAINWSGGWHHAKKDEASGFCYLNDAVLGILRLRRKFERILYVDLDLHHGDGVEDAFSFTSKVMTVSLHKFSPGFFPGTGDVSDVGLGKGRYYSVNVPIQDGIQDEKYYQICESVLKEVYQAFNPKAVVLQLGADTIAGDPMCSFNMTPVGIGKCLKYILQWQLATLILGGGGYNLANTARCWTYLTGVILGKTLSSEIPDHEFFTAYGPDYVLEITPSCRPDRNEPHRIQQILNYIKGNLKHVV
Chain of Histone deacetylase 3 (O15379 whole entry): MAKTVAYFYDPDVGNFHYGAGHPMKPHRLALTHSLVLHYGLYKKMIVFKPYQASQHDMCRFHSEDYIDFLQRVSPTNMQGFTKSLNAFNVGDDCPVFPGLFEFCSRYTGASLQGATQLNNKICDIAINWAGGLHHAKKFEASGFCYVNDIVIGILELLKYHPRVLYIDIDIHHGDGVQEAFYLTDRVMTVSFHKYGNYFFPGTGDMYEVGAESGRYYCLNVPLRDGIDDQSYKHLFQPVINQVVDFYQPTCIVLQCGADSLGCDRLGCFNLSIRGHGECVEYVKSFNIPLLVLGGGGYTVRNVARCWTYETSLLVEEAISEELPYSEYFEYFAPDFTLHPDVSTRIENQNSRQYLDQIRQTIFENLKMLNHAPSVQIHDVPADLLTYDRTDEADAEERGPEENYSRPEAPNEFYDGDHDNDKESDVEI
Chain of Histone deacetylase 1 (Q13547 whole entry): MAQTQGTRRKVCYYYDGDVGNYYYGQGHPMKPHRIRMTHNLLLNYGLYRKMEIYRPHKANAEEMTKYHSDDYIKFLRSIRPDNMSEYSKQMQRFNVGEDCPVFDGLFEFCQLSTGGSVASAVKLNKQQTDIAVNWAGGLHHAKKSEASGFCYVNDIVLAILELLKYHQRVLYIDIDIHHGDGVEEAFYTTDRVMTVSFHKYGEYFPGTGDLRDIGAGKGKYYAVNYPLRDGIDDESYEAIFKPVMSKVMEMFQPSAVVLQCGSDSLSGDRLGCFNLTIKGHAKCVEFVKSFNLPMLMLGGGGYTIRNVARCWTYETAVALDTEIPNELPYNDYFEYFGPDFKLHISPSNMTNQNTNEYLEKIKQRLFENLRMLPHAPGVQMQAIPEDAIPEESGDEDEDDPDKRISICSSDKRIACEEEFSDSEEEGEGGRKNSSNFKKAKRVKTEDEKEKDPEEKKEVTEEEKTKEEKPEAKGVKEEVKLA

Compound: CCn1cnc(-c2ccc(OC)cc2)c1-c1ccc(/C=C/C(=O)NO)cc1
IC50 (PANC-1): 0.3 µM
IC50 (HCT-116 [1]): 0.3 µM
IC50 [2]: > 150 µM
IC50 (518A2): 0.3 µM
IC50 (HT-29): 0.3 µM
IC50 (KB-V1): 0.3 µM
IC50 [3]: 0.3 µM

Compound: CO/N=C1\CN(Cc2ccc(/C=C/C(=O)NO)cc2)c2ccc(F)cc21
IC50 (Histone deacetylase 2): 0.267 µM
Ratio IC50 (PC-3 [4]): 1.8
IC50 (ASPC1 [5]): 0.47 µM
IC50 (SW-620 [6]): 0.47 µM
Ratio IC50 (ASPC1 [7]): 1.8
IC50 (PC-3 [8]): 0.47 µM
Ratio IC50 (SW-620 [9]): 1.8

Compound: O=C(CCCCCCC(=O)Nc1ccccc1)NO [VORINOSTAT]
Activity (MDA-MB-231): 40%

IC50 (HL-60): 0.77 µM
Compound: O=C(/C=C/c1ccc(S(=O)(=O)Nc2ccccc2C(F)(F)F)cc1)NO
IC50 [10]: 0.77 µM

Compound: COc1cc(NC(C)CCCCCNC(=O)CCC(=O)NO)c2ncccc2c1 (stereo not drawn)
IC50 (U2OS): 3.3 µM
IC50 (MCF7 [11]): 1.6 µM
IC50 (Plasmodium falciparum [12]): 0.3 µM
IC50 (Plasmodium berghei): 0.3 µM
IC50 (HepG2 [13]): 1.6 µM
IC50 (Plasmodium falciparum [14]): 0.3 µM

Ratio IC50 [15]: 35
IC50 (Histone deacetylase): 0.0034 µM
Compound: Cc1c(CCNS(=O)(=O)c2ccc(/C=C/C=C/C(=O)NO)cc2)c2ccccc2n1C
GI50 (A549): 0.02 µM
GI50 (Hep 3B2): 0.02 µM
GI50 (PC-3 [8]): 0.02 µM
GI50 (HCT-116 [16]): 0.02 µM

Ratio IC50 [15]: 35
IC50 (Histone deacetylase): 0.0033 µM
Compound: CCn1c(C)c(CCNS(=O)(=O)c2ccc(/C=C/C=C/C(=O)NO)cc2)c2ccccc21
GI50 (A549): 0.02 µM
GI50 (Hep 3B2): 0.02 µM
GI50 (PC-3 [8]): 0.02 µM
GI50 (HCT-116 [16]): 0.02 µM

Compound: O=C(NO)c1cn(C2CCN(C(=O)Cc3ccc4ccccc4c3)CC2)nn1
IC50 (Histone deacetylase 2): 1 µM
IC50 (U-937 [17]): 1.2 µM
IC50 (SH-SY5Y): 1.2 µM
IC50 [18]: 1 µM
IC50 (U-266): 1.2 µM
IC50 (NCI-H929): 1.2 µM
IC50 (HL-60): 1.2 µM
IC50 (Histone deacetylase 3): 1 µM
IC50 (Histone deacetylase 1): 1 µM
IC50 (Histone deacetylase 8): 1 µM
IC50 (MCF7 [19]): 1.2 µM

IC50 (U-937 [17]): 1.2 µM
IC50 (SH-SY5Y): 1.2 µM
IC50 (NCI-H929): 1.2 µM
IC50 (HL-60): 1.2 µM
IC50 (MCF7 [19]): 1.2 µM
Compound: O=C(NO)c1cn(C2CCN(C(=O)c3ccc(-c4ccccc4)cc3)CC2)nn1
IC50 (U-266): 1.2 µM

Compound: NC(=O)N1N=C(c2ccccc2)CC1c1ccccc1OCC(=O)NO (stereo not drawn)
IC50 (PC-3 [20]): 18.7 µM
IC50 (ES-2): 18.7 µM
IC50 (HepG2 [21]): 18.7 µM
IC50 (K562): 18.7 µM
IC50 (U-937 [22]): 18.7 µM
IC50 (PLC-PRF-5): 18.7 µM

Compound: CC(C)=CCC/C(C)=C/CC/C(C)=C/CSc1ccccc1C(=O)NCCC(=O)NO
IC50 (EJ): 4.93 µM
IC50 (HepG2 [21]): 4.93 µM
IC50 (MCF7 [23]): 4.93 µM
IC50 (NCI-H460): 4.93 µM
IC50 (SMMC-7721): 4.93 µM
